Reference: the supplement of paper PMC10307832

Experiments:
Experiment in all cases: relative viability (nuclei count vs DMSO), 5 days (fraction); higher = more cells survive
[1] = compound: C/C(=N\NC(=S)N1CCC1)/C2=CC=CC=N2 + C[C@@H](Oc1cc(-c2cnn(C3CCNCC3)c2)cnc1N)c1c(Cl)ccc(F)c1Cl [Crizotinib] (partner 1 µM)
Summary of the method: (§1)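 Medians of duplicate plates are given as relative viability. That measure is the nuclei count in treated wells divided by the count in vehicle wells. Counts were taken on 4× images of lung cancer cell lines in 1536-well plates, 5 days after pin-tool dosing the day after seeding with one drug alone or a fixed anchor-drug dose plus five library-drug doses (not always all listed) in √10 steps.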

[2] = compound: C/C(=N\NC(=S)N1CCC1)/C2=CC=CC=N2 + O=C(CCCCCCC(=O)Nc1ccccc1)NO [Vorinostat] (partner 1 µM)
Summary of the method: as §1

[3] = compound: C/C(=N\NC(=S)N1CCC1)/C2=CC=CC=N2 + CC1(C)CCC(c2ccc(Cl)cc2)=C(CN2CCN(c3ccc(C(=O)NS(=O)(=O)c4ccc(N[C@H](CCN5CCOCC5)CSc5ccccc5)c(S(=O)(=O)C(F)(F)F)c4)cc3)CC2)C1 [Navitoclax] (partner 0.5 µM)
Summary of the method: as §1

[4] = compound: C/C(=N\NC(=S)N1CCC1)/C2=CC=CC=N2 + Cc1cc(Nc2cc(N3CCN(C)CC3)nc(Sc3ccc(NC(=O)C4CC4)cc3)n2)n[nH]1 [Tozasertib] (partner 0.1 µM)
Summary of the method: as §1

| Cell Line | relative viability ([1]; first compound 0.05 µM) | relative viability ([1]; first compound 0.1581 µM) | relative viability ([1]; first compound 0.5 µM) | relative viability ([1]; first compound 1.581 µM) | relative viability ([1]; first compound 5 µM) | relative viability ([2]; first compound 0.05 µM) | relative viability ([2]; first compound 0.1581 µM) | relative viability ([2]; first compound 0.5 µM) | relative viability ([2]; first compound 1.581 µM) | relative viability ([2]; first compound 5 µM) | relative viability ([3]; first compound 0.05 µM) | relative viability ([3]; first compound 0.1581 µM) | relative viability ([3]; first compound 0.5 µM) | relative viability ([3]; first compound 1.581 µM) | relative viability ([3]; first compound 5 µM) | relative viability ([4]; first compound 0.05 µM) | relative viability ([4]; first compound 0.1581 µM) | relative viability ([4]; first compound 0.5 µM) | relative viability ([4]; first compound 1.581 µM) | relative viability ([4]; first compound 5 µM) |
| --- | --- | --- | --- | --- | --- | --- | --- | --- | --- | --- | --- | --- | --- | --- | --- | --- | --- | --- | --- | --- |
| PC-14 | 0.215 | 0.11 | 0.0946 | 0.0983 | 0.0928 | 0.0311 | 0.0568 | 0.041 | 0.041 | 0.0331 | 0.0569 | 0.0561 | 0.0604 | 0.061 | 0.0618 | 0.0506 | 0.0536 | 0.0474 | 0.05 | 0.0386 |
| A-427 | 0.267 | 0.445 | 0.0997 | 0.0835 | 0.129 | 0.187 | 0.198 | 0.171 | 0.158 | 0.186 | 0.182 | 0.664 | 0.141 | 0.125 | 0.133 | 0.1 | 0.0846 | 0.12 | 0.077 | 0.102 |
| H3255 | 0.289 | 0.309 | 0.288 | 0.222 | 0.189 | 0.334 | 0.288 | 0.179 | 0.274 | 0.289 | 0.103 | 0.123 | 0.101 | 0.094 | 0.148 | 0.331 | 0.167 | 0.288 | 0.193 | 0.232 |
| HCC-44 | 0.783 | 0.208 | 0.186 | 0.209 | 0.229 | 0.894 | 1.02 | 0.51 | 0.471 | 0.411 | 0.782 | 0.311 | 0.194 | 0.222 | 0.258 | 0.359 | 0.309 | 0.257 | 0.246 | 0.231 |
| NCI-H1734 | 0.202 | 0.175 | 0.156 | 0.118 | 0.121 | 0.169 | 0.174 | 0.145 | 0.12 | 0.124 | 0.0989 | 0.104 | 0.0882 | 0.0843 | 0.0776 | 0.135 | 0.15 | 0.152 | 0.116 | 0.121 |
| NCI-H2228 | 0.169 | 0.213 | 0.262 | 0.141 | 0.149 | 0.231 | 0.15 | 0.166 | 0.156 | 0.145 | 0.181 | 0.132 | 0.13 | 0.117 | 0.123 | 0.0977 | 0.114 | 0.126 | – | 0.116 |
| COR-L23 | 0.11 | 0.119 | 0.12 | 0.0692 | 0.0727 | 0.11 | 0.099 | 0.0957 | 0.0832 | 0.0963 | 0.108 | 0.111 | 0.0885 | 0.077 | 0.0905 | 0.101 | 0.0974 | 0.0768 | 0.0695 | 0.101 |
| NCI-H1993 | 0.588 | 0.536 | 0.571 | 0.509 | 0.443 | 0.337 | 0.539 | 0.319 | 0.338 | 0.446 | 0.664 | 0.662 | 0.638 | 0.511 | 0.533 | 0.479 | 0.466 | 0.449 | 0.513 | 0.51 |
